These results are taken from article PMC6053448, “Small molecule activator of Nm23/NDPK as an inhibitor of metastasis” (Scientific Reports, 2018).

The target in experiment [1] is T1, recombinant human Nm23-H1 (NDPK-A) (Homo sapiens, UniProt P15531).
T1 construct: gene NME1; pET-3c, E. coli BL21(DE3), no tag mentioned; ATP-sepharose purification
Kind of experiment: NDPK assay, activation. Type of experiment: biochemical. The conditions noted are these: number only in supplement.

The target of experiment [2] is T1, recombinant human Nm23-H1 (NDPK-A). In words: NDPK assay, double reciprocal plot. The conditions noted are these: 5 µM ATP, without NMac1. It is filed as biochemical.

Molecules are shown by their SMILES.

T1 sequence (P15531 whole entry): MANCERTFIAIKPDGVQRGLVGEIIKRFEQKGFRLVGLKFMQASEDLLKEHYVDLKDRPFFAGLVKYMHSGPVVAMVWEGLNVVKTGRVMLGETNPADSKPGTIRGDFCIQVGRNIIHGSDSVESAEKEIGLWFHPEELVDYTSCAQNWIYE

Consider `COc1ccc(/C=C/[C@H]2CCC=C[C@@H]2c2ccc(OC)c(OC)c2)cc1OC` [NMac3, 3S-(3,4-dimethoxyphenyl)-4R-[(E)-3,4-dimethoxystyryl]cyclohex-1-ene], for which the “% activation” value in experiment [1] is reported as “The chirality of the molecule did not affect the activation of Nm23-H1”.
Regarding `O=c1ccn([C@@H]2O[C@H](COP(=O)(O)OP(=O)(O)O)[C@@H](O)[C@H]2O)c(=O)[nH]1` [UDP], the Km entry in experiment [2] was “NMac1 decreased the Km value of Nm23-H1 for substrate UDP without affecting Vmax”.
